Experimental findings from patent US20030175680A1, “Methods of treating and preventing bone loss” (priority 2002, published 2003) are described below.

pIC50: −log10 of the molar value. “Also recorded” adds a separate entry of the source.

For orientation: pIC50 means the negative decadic logarithm of the IC50, by convention in mol/L. A higher pIC50 goes with a low IC50.

For one test, the target named is 15-LO (UniProt P12530). Type of test: biochemical. On the procedure: IC50's may be determined by standard methods. One particular method is a colorimetric assay in which the putative inhibitor is pre-incubated with the 15-LO enzyme for about 10 minutes followed by addition of linoleic acid substrate for an additional 10 minutes. The product, 13-HPODE, is quantitated by coupling the reduction of the hydroperoxylated lipid to the oxidation on N-benzoyl-leucomethylene blue in the presence of hemin at pH 5. The absorbance of the oxidized methylene blue is directly proportional to the amount of 13-HPODE formed by the 15-LO, and can be measured in the presence and absence of inhibitor.
Chain of 15-LO (P12530 whole entry): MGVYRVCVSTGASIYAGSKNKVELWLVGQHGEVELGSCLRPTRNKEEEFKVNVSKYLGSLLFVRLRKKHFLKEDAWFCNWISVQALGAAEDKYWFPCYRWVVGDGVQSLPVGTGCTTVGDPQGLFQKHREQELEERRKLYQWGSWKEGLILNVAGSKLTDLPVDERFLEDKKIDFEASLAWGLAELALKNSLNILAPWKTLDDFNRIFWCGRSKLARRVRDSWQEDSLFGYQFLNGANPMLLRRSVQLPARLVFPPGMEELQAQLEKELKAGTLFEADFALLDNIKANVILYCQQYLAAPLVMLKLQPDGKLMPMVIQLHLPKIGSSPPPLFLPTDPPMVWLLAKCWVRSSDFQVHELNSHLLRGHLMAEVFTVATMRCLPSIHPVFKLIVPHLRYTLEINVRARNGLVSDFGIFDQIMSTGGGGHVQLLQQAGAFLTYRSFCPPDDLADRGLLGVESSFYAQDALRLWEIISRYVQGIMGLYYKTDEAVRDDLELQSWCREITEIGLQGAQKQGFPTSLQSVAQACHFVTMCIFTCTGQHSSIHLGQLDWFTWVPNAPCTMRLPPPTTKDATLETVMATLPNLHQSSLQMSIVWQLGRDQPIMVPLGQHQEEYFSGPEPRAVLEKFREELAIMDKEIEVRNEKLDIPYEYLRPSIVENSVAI

Test [1] relates to human mesenchymal stem cells (hMSC). The experiment in a line: Alkaline phosphatase activity in hMSC cultures induced to differentiate into osteoblasts. Type of test: cell-based. The following applies: for normalized activity of alkaline phosphatase: hMSC, second experimental set, inhibitors added on Day 1 or Day 11, FIG. 6; for alkaline phosphatase activity: hMSC cultured 9 days with 5-LO inhibitors, relative to DMSO, FIG. 8. How it is done: (§1) In order to determine the ability of inhibitors of 15-lipoxygenase to stimulate bone formation and bone accretion, the ability of the 15-LO inhibitors to promote measures of differentiation of stem cells into bone forming cells (osteoblasts) was tested in vitro.
(§2) Four to eight independent replicate cultures were prepared at each dose level. At the end of the experiments, the cultured cells were harvested by scraping the wells into the appropriate medium for further analysis of either alkaline phosphatase (Sigma kit#104-LL), or cellular calcium (Sigma kit#587-M). Cultures harvested for alkaline phosphatase assessment were harvested by scraping the cells and resuspending into 250 μL Tris buffered 0.1% Triton X-100, and then assayed either fresh or following freeze-thaw. Separate cultures to be assayed for total calcium content were scraped and resuspended into 250 μL 0.5M HCL. Results of these assays were normalized to total cellular DNA, thereby normalizing for differences in cell proliferation. At the same times that cultures were harvested for alkaline phosphatase and calcium, separate replicate cultures were harvested by scraping the cells and resuspending them in 250 μL Hank's Balanced Salt Solution, and cellular number assessed by DNA (DNeasy Tissue Kit, Qiagen cat#69506).
[…] Three different sets of experiments were performed.
The plates were cultured for 14 days. The DNA-normalized activity of alkaline phosphatase is plotted in FIG. 5.
(§3) Inhibitors were added either on Day 1 or Day 11. […] The normalized activity of alkaline phosphatase and calcium content is plotted in FIGS. 6 and 7, respectively.
(§4) As a control for the specificity of 15-LO inhibition for the induction of osteoblast differentiation of stem cells in vitro, the third set of experiments studied eight replicates of standard lipoxygenase inhibitors recognized as more specific to the 5-LO enzyme, rather than the 15-LO enzyme. Zileuton (1,10, 50 uM, prepared at Roche as) Compound 5, AA-861 (1, 10, 50 uM, Sigma #A371 1) and Rev-5901 (15 uM, Sigma #R5523) were prepared fresh every 2-3 days and tested in the human osteoblast precursor cells.

The test system is the same in test [2]. The experiment in a line: Total calcium content of hMSC cultures induced to differentiate into osteoblasts. Type of test: cell-based. The following applies: for calcium content: hMSC, second experimental set, inhibitors added on Day 1 or Day 11, FIG. 7; for culture calcium deposition (total calcium content): hMSC cultured 16 days with 5-LO inhibitors, relative to DMSO or 1,25-Vitamin D3, FIG. 9. On the procedure: as §1, §2, §3, §4

For a further test, the system named is Lck-IL4 transgenic mice. The test can be described thus: Lck-IL4 transgenic mouse model of osteoporosis: whole body and femoral bone parameters. Type of test: in vivo. The note with it: Lck-IL4 mice fed Compound 2 150 mg/kg bid in food 84 days vs untreated Lck-IL4 controls. On the procedure:
The ability of 15-lipoxygenase inhibitors to promote bone formation in vivo was assessed by measuring the ability of the inhibitors to improve bone parameters in a mouse model of osteoporosis. Constitutive expression of an Interleukin-4 transgene from the Lck gene promoter (Lck-IL4) in C57BL/6 mice results in a severe bone phenotype mimicking osteoporosis.
Mice were permitted access to one-half the daily food intake twice daily at approximately 12 h intervals and diet intake was monitored daily. Water was available ad libitum. The control groups received the same diet without Compound 2. All groups consumed food equally well over the course of the experiment. […]
Bone mineral measurements were determined by dual energy X-ray absorptiometry (DEXA). […]
The cross-sectional geometric parameters of the mid-diaphysis of the femora were determined using a portable x-ray microtomograph (Model 1074, Skyscan, Antwerp, Belgium). Scans were taken at […] intervals, and a slice located at the midpoint of the femur was analyzed for total area (FCSA), cortical area (Ct Ar) and medullary canal area (Ma Ar). In addition, using the pixels contained in the cortical region of the digital image, the radius from the centroid of the cross-section to the outer fiber in the anterior-posterior plane, the areal moment of inertia (Ixx) in the plane of bending and the average cortical thickness (Ct Th) were calculated. […]

Test [3] concerns ovariectomized (Ovx) rats. The test can be described thus: Estrogen deficiency Rat OVX osteopenia assay, BMD. Type of test: in vivo. On the procedure: In order to determine the ability of inhibitors of 15-lipoxygenase to stimulate bone formation and bone accretion, [[[5-(5,6-difluoro-1H-indol-2-yl)-2-methoxyphenyl]amino]sulfonyl]-carbamic acid-isobutyl ester, Compound 6, was prepared as described in WO0196298 ) and tested in the standard estrogen deficiency Rat OVX osteopenia assay.
Three month old rats are ovariectomized (Ovx) and administered 1 mg/kg/day Compound 6 or 0.1 ug/kg/day 1,25-dihydroxy vitamin D3 (positive control, abbreviated Vit. D in Table) by oral gavage once a day starting at 2 weeks post-ovariectomy and continuing for 7 weeks. The dose was increased to 2 mg/kg/day and continued until 11 weeks. Control groups, both sham (rats that were not ovariectomized) and Ovx, received vehicle only. The bone mineral density of the spine and right hip was determined by using the High Resolution Software package on a QDR-4500 Bone Densitometer^□ (Hologic, Walthan, Mass.). The animals were scanned by placing them in a supine position such that the right femur was perpendicular to the main body and the tibia was perpendicular to the femur. […]

[4] abbreviates: 7 weeks treatment, 0.1 ug/kg/day oral gavage (positive control).
Where [5] appears, read: 3 weeks treatment, 1 mg/kg/day oral gavage.
The mark [6] stands for this setting: 7 weeks treatment, 1 mg/kg/day oral gavage.
[7] abbreviates: 11 weeks treatment, dose increased to 2 mg/kg/day after 7 weeks, oral gavage.

On to `COc1ccc(C(=O)Nc2ccc(Cl)c(Cl)c2)cc1N` [Compound 3, 3-amino-N-(3,4-dichlorophenyl)-4-methoxybenzamide], for which the pIC50 against 15-LO was approximately 8.00. Further, the “normalized activity of alkaline phosphatase” value in test [1] is given as “most effective when added on Day 11”. In addition, the calcium content result in test [2] is “most effective when added on Day 11”.

With `c1ccc2c(c1)SCc1c-2[nH]c2ccccc12` [Compound 2, 6,11-dihydro-5-thia-11-aza-benzo[a]fluorene], the “normalized activity of alkaline phosphatase” value in test [1] is recorded as “most effective when added on Day 1”. Further, the calcium content entry in test [2] was “most effective when added on Day 1”. In addition, in the test with Lck-IL4 transgenic mice, the “Femoral Marrow area” value is −7% and the “Femoral Total area” value is −4%.

Turning to `C=C1/C(=C\C=C2/CCC[C@]3(C)[C@@H]([C@H](C)CCCC(C)(C)O)CC[C@@H]23)C[C@@H](O)C[C@@H]1O` [Vit D, 1,25-dihydroxy vitamin D3, reference compound], in test [3] (setting [4]), the “BMD Lumbar Spine L2-L4” value is 0.2628 (0.023) gm mineral/cm^2 and the “BMD Lumbar Spine L5” value came to 0.2742 gm mineral/cm^2.

For `CC(c1cc2ccccc2s1)N(O)C(N)=O` (stereo not drawn) [Compound 5, Zilueton], the “IC50 for 15-LO” value against 15-LO (result in words) is recorded as “negative control”. The alkaline phosphatase activity entry in test [1] (listed as Zileuton) is recorded as “lack ability to induce; also recorded: lack of a response”. For the same compound, the “culture calcium deposition (total calcium content)” value in test [2] (listed as Zileuton) is listed as “lack ability to induce; also recorded: lack of a response”.

With `CCCCCC(O)c1cccc(OCc2ccc3ccccc3n2)c1` (stereo not drawn) [Rev-5901], in test [1], the alkaline phosphatase activity result was “lack ability to induce; also recorded: lack of a response”. The “culture calcium deposition (total calcium content)” value in test [2] was “lack ability to induce; also recorded: lack of a response”.

In turn, `CCCCCCC#Cc1ccccc1/C=C/C(=O)O` [Compound 4, trans-3-(2-oct-1-ynyl-phenyl)-acrylic acid] gave a pIC50 against 15-LO of 5.52 to 6.00.

Compound `COc1ccc(-c2cc3cc(F)c(F)cc3[nH]2)cc1NS(=O)(=O)NC(=O)OCC(C)C` [Compound 6, [[[5-(5,6-difluoro-1H-indol-2-yl)-2-methoxyphenyl]amino]sulfonyl]-carbamic acid-isobutyl ester] gave a negative-log IC50 (pIC50) against 15-LO of 7.08 to 7.60. Besides, in test [3] (setting [5]), the “BMD Lumbar Spine L2-L4” value is listed as 0.2347 (0.055) gm mineral/cm^2, the “BMD Lumbar Spine L5” value stood at 0.2480 gm mineral/cm^2 and the “BMD Proximal Femur” value is on record as 0.2838 (0.103) gm mineral/cm^2. For the same compound, in test [3] (setting [6]), the “BMD Lumbar Spine L2-L4” value is recorded as 0.2474 (0.019) gm mineral/cm^2, the “BMD Lumbar Spine L5” value is given as 0.2549 gm mineral/cm^2 and the “BMD Proximal Femur” value is reported as 0.2932 (0.033) gm mineral/cm^2. In test [3] (setting [7]), the “BMD Lumbar Spine L2-L4” value was 0.2507 (0.009) gm mineral/cm^2, the “BMD Lumbar Spine L5” value is 0.2626 gm mineral/cm^2 and the “BMD Proximal Femur” value is on record as 0.2986 (0.039) gm mineral/cm^2. The “BMD in the spine” value in test [3] (at >3 weeks, result in words) was “increased BMD”. Besides, the “BMD in the proximal femur” value in test [3] (at >7 weeks, result in words) is given as “increased BMD”.
